pIC50: −log10 of the molar value. In brackets after ≈: the same amount, converted by molar mass. Like-named read-outs stand apart in the source and are kept apart here.
Key:
[1] = system: N. gonorrhoeae WHO L; test: Liquid broth MIC in Fastidious broth; conditions: Neisseria gonorrhoeae
[2] = target: T1, PBP3 from Acinetobacter baumannii (ATCC 19606) (Acinetobacter baumannii, UniProt A0ABX6CK25); test: Bocillin-FL fluorescence polarization competition binding, A. baumannii PBP3; conditions: fluorescence polarization competition binding assay using Bocillin-FL; read-out: A. baumannii PBP3 Potency
T1 sequence (A0ABX6CK25 64-610): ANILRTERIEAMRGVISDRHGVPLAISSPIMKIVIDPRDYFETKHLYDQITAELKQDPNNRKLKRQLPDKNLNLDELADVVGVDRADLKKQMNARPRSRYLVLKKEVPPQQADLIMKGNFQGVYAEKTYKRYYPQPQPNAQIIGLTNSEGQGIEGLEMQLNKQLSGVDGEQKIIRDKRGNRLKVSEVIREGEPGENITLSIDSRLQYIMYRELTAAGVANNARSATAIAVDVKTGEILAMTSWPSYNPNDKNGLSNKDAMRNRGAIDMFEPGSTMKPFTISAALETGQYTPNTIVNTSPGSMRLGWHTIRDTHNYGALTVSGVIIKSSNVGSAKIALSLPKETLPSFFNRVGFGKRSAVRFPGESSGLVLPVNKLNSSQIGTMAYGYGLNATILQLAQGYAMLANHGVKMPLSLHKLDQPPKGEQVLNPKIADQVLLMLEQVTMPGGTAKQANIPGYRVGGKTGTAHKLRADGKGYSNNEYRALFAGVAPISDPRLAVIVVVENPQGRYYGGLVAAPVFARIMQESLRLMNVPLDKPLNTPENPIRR
Method in brief: (§1)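 Purified PBP was preincubated with inhibitor (E. coli PBP3 1.5 μM, 30 min; P. aeruginosa PBP3 0.75 μM, A. baumannii PBP3 0.2 μM and PBP1a 1 μM, 15 min), then Bocillin-FL (0.1 μM; 0.05 μM for PBP1a) added and FP read up to 60 min. EC50 = 50% loss of bound probe.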

[3] = target: T2, PBP1a from Acinetobacter baumannii (ATCC 19606) (Acinetobacter baumannii, UniProt A0ABX6CK30); test: Bocillin-FL fluorescence polarization competition binding, A. baumannii PBP1a; conditions: fluorescence polarization competition binding assay using Bocillin-FL; read-out: A. baumannii PBP1a Potency
T2 sequence (A0ABX6CK30 1-851): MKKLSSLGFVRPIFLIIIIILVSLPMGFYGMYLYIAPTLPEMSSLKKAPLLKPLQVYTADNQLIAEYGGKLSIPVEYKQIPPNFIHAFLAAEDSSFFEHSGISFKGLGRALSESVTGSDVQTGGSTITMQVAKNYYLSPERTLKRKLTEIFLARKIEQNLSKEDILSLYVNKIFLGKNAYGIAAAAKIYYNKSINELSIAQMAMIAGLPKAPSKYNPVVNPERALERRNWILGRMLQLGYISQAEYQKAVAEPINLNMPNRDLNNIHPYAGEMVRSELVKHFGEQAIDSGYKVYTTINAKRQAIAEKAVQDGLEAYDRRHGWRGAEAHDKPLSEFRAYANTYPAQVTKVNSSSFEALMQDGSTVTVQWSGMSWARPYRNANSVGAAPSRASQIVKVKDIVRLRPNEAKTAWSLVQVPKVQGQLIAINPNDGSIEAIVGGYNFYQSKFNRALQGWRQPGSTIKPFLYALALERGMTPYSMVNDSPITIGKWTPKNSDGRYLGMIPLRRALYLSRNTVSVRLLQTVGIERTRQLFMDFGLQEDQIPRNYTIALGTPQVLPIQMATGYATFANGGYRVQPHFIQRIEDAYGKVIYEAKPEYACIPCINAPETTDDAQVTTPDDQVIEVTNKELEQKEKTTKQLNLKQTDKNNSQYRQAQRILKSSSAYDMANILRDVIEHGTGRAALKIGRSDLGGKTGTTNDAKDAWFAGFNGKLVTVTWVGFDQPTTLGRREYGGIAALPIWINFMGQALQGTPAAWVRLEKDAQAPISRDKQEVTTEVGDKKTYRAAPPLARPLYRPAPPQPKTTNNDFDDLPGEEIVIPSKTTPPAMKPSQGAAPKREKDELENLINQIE
Method in brief: as §1

[4] = read-out: Minimum Inhibitory Concentration (MIC), N. gonorrhoeae WHO L
[5] = read-out: Minimum Inhibitory Concentration, WHO L

`O=C(CN1CCN(C(=O)NC(C(=O)N[C@H]2Cc3ccc(F)c(C(=O)O)c3OB2O)c2cc(F)c(O)c(O)c2Cl)C(=O)C1=O)Nc1ccc(O)cc1` (stereo partly drawn) [Example 230, (3R)-3-(2-(2-chloro-5-fluoro-3,4-dihydroxyphenyl)-2-(4-(2-((4-hydroxyphenyl)amino)-2-oxoethyl)-2,3-dioxopiperazine-1-carboxamido)acetamido)-7-fluoro-2-hydroxy-3,4-dihydro-2H-benzo[e][1,2]oxaborinine-8-carboxylic acid] gave an MIC [1, 4] of 16 to 32 µg/mL (≈ 21.9 to 43.7 µM), a pIC50 [2] of over 5.00 and a pIC50 [3] of under 3.60.

`CN(CCN1CCN(C(=O)N[C@@H](C(=O)N[C@H]2Cc3ccc(F)c(C(=O)O)c3OB2O)c2cc(F)c(O)c(O)c2Cl)C(=O)C1=O)Cc1cccnc1` [Example 201, (R)-3-((R)-2-(2-chloro-5-fluoro-3,4-dihydroxyphenyl)-2-(4-(2-(methyl(pyridin-3-ylmethyl)amino)ethyl)-2,3-dioxopiperazine-1-carboxamido)acetamido)-7-fluoro-2-hydroxy-3,4-dihydro-2H-benzo[e][1,2]oxaborinine-8-carboxylic acid] was tested, and the MIC [1, 4] was over 64 µg/mL, the pIC50 [2] was over 5.00 and the pIC50 [3] was under 3.60.

With `O=C(NCCCN1CCN(C(=O)N[C@@H](C(=O)N[C@H]2Cc3ccc(F)c(C(=O)O)c3OB2O)c2cc(F)c(O)c(O)c2Cl)C1=O)c1ccccc1` [Example 253, (R)-3-((R)-2-(3-(3-benzamidopropyl)-2-oxoimidazolidine-1-carboxamido)-2-(2-chloro-5-fluoro-3,4-dihydroxyphenyl)acetamido)-7-fluoro-2-hydroxy-3,4-dihydro-2H-benzo[e][1,2]oxaborinine-8-carboxylic acid] the MIC [1, 5] was over 64 µg/mL, the pIC50 [2] was over 5.00 and the pIC50 [3] was under 3.60.

In the case of `O=C(NCCCN1CCN(C(=O)NC(C(=O)N[C@H]2Cc3ccc(F)c(C(=O)O)c3OB2O)c2cc(F)c(O)c(O)c2Cl)C(=O)C1=O)c1ccc(O)cc1` (stereo partly drawn) [Example 203, (3R)-3-(2-(2-chloro-5-fluoro-3,4-dihydroxyphenyl)-2-(4-(3-(4-hydroxybenzamido)propyl)-2,3-dioxopiperazine-1-carboxamido)acetamido)-7-fluoro-2-hydroxy-3,4-dihydro-2H-benzo[e][1,2]oxaborinine-8-carboxylic acid], the MIC [1, 4] was 16 to 32 µg/mL (≈ 21.1 to 42.1 µM), the pIC50 [2] was over 5.00 and the pIC50 [3] was under 3.60.

`O=C(NCCN1CCN(C(=O)NC(C(=O)N[C@H]2Cc3ccc(F)c(C(=O)O)c3OB2O)c2cc(F)c(O)c(O)c2Cl)C(=O)C1=O)c1ccc(O)cc1` (stereo partly drawn) [Example 214, (3R)-3-(2-(2-chloro-5-fluoro-3,4-dihydroxyphenyl)-2-(4-(2-(4-hydroxybenzamido)ethyl)-2,3-dioxopiperazine-1-carboxamido)acetamido)-7-fluoro-2-hydroxy-3,4-dihydro-2H-benzo[e][1,2]oxaborinine-8-carboxylic acid] showed an MIC [1, 4] of over 64 µg/mL, a pIC50 [2] of over 5.00 and a pIC50 [3] of under 3.60.

`O=C(CN1CCN(C(=O)NC(C(=O)N[C@H]2Cc3ccc(F)c(C(=O)O)c3OB2O)c2cc(F)c(O)c(O)c2Cl)C(=O)C1=O)Nc1ccccc1` (stereo partly drawn) [Example 232, (3R)-3-(2-(2-chloro-5-fluoro-3,4-dihydroxyphenyl)-2-(2,3-dioxo-4-(2-oxo-2-(phenylamino)ethyl)piperazine-1-carboxamido)acetamido)-7-fluoro-2-hydroxy-3,4-dihydro-2H-benzo[e][1,2]oxaborinine-8-carboxylic acid] was tested, and the MIC [1, 4] was over 64 µg/mL, the pIC50 [2] was over 5.00 and the pIC50 [3] was under 3.60.

Work on `O=C(NCCN1CCN(C(=O)NC(C(=O)N[C@H]2Cc3ccc(F)c(C(=O)O)c3OB2O)c2cc(F)c(O)c(O)c2Cl)C1=O)c1nccs1` (stereo partly drawn) [Example 247, (3R)-3-(2-(2-chloro-5-fluoro-3,4-dihydroxyphenyl)-2-(2-oxo-3-(2-(thiazole-2-carboxamido)ethyl)imidazolidine-1-carboxamido)acetamido)-7-fluoro-2-hydroxy-3,4-dihydro-2H-benzo[e][1,2]oxaborinine-8-carboxylic acid] yielded an MIC [1, 5] of over 64 µg/mL, a pIC50 [2] of over 5.00 and a pIC50 [3] of under 3.60.

Work on `O=C(NCCCN1CCN(C(=O)NC(C(=O)N[C@H]2Cc3ccc(F)c(C(=O)O)c3OB2O)c2cc(F)c(O)c(O)c2Cl)C(=O)C1=O)Nc1cccnc1` (stereo partly drawn) [Example 213, (3R)-3-(2-(2-chloro-5-fluoro-3,4-dihydroxyphenyl)-2-(2,3-dioxo-4-(3-(3-(pyridin-3-yl)ureido)propyl)piperazine-1-carboxamido)acetamido)-7-fluoro-2-hydroxy-3,4-dihydro-2H-benzo[e][1,2]oxaborinine-8-carboxylic acid] yielded an MIC [1, 4] of over 64 µg/mL, a pIC50 [2] of over 5.00 and a pIC50 [3] of under 3.60.

`O=C(NCCCN1CCN(C(=O)NC(C(=O)N[C@H]2Cc3ccc(F)c(C(=O)O)c3OB2O)c2cc(F)c(O)c(O)c2Cl)C(=O)C1=O)Nc1ccc(O)cc1` (stereo partly drawn) [Example 227, (3R)-3-(2-(2-chloro-5-fluoro-3,4-dihydroxyphenyl)-2-(4-(3-(3-(4-hydroxyphenyl)ureido)propyl)-2,3-dioxopiperazine-1-carboxamido)acetamido)-7-fluoro-2-hydroxy-3,4-dihydro-2H-benzo[e][1,2]oxaborinine-8-carboxylic acid] was tested, and the MIC [1, 4] was over 64 µg/mL, the pIC50 [2] was over 5.00 and the pIC50 [3] was under 3.60.

`O=C(NCCCN1CCN(C(=O)NC(C(=O)N[C@H]2Cc3ccc(F)c(C(=O)O)c3OB2O)c2cc(F)c(O)c(O)c2Cl)C(=O)C1=O)Nc1cccc(O)c1` (stereo partly drawn) [Example 206, (3R)-3-(2-(2-chloro-5-fluoro-3,4-dihydroxyphenyl)-2-(4-(3-(3-(3-hydroxyphenyl)ureido)propyl)-2,3-dioxopiperazine-1-carboxamido)acetamido)-7-fluoro-2-hydroxy-3,4-dihydro-2H-benzo[e][1,2]oxaborinine-8-carboxylic acid] gave an MIC [1, 4] of over 64 µg/mL, a pIC50 [2] of over 5.00 and a pIC50 [3] of under 3.60.

Work on `O=C(NCCN1CCN(C(=O)NC(C(=O)N[C@H]2Cc3ccc(F)c(C(=O)O)c3OB2O)c2cc(F)c(O)c(O)c2Cl)C(=O)C1=O)c1cccnc1` (stereo partly drawn) [Example 217, (3R)-3-(2-(2-chloro-5-fluoro-3,4-dihydroxyphenyl)-2-(4-(2-(nicotinamido)ethyl)-2,3-dioxopiperazine-1-carboxamido)acetamido)-7-fluoro-2-hydroxy-3,4-dihydro-2H-benzo[e][1,2]oxaborinine-8-carboxylic acid] yielded an MIC [1, 4] of over 64 µg/mL, a pIC50 [2] of over 5.00 and a pIC50 [3] of under 3.60.

For `O=C(CN1CCN(C(=O)NC(C(=O)N[C@H]2Cc3ccc(F)c(C(=O)O)c3OB2O)c2cc(F)c(O)c(O)c2Cl)C(=O)C1=O)Nc1ccncc1` (stereo partly drawn) [Example 233, (3R)-3-(2-(2-chloro-5-fluoro-3,4-dihydroxyphenyl)-2-(2,3-dioxo-4-(2-oxo-2-(pyridin-4-ylamino)ethyl)piperazine-1-carboxamido)acetamido)-7-fluoro-2-hydroxy-3,4-dihydro-2H-benzo[e][1,2]oxaborinine-8-carboxylic acid], the MIC [1, 4] was over 64 µg/mL, the pIC50 [2] was over 5.00 and the pIC50 [3] was under 3.60.

`O=C(NCCN1CCN(C(=O)NC(C(=O)N[C@H]2Cc3ccc(F)c(C(=O)O)c3OB2O)c2cc(F)c(O)c(O)c2Cl)C(=O)C1=O)c1cccc(O)c1` (stereo partly drawn) [Example 215, (3R)-3-(2-(2-chloro-5-fluoro-3,4-dihydroxyphenyl)-2-(4-(2-(3-hydroxybenzamido)ethyl)-2,3-dioxopiperazine-1-carboxamido)acetamido)-7-fluoro-2-hydroxy-3,4-dihydro-2H-benzo[e][1,2]oxaborinine-8-carboxylic acid] showed an MIC [1, 4] of over 64 µg/mL, a pIC50 [2] of over 5.00 and a pIC50 [3] of under 3.60.

From patent publication US20240270762A1, “PENICILLIN-BINDING PROTEIN INHIBITORS” (priority 2021, published 2024)
